pEC50: −log10 of the molar value.
Target: human activated kallikrein enzyme (plasma kallikrein) (Homo sapiens (Human), UniProt P03952)
Test: Inhibition of human activated plasma kallikrein, fluorogenic peptide substrate assay, 500 pM enzyme format
Type: biochemical
Conditions: 500 pM activated kallikrein enzyme, 300 uM Pro-Phe-Arg-7-amido-4-methylcoumarin substrate, 30 min preincubation, 10 min at RT; read-out: Primary Dose Response Assay: Average EC50
Experimental: Example compounds were evaluated for inhibition of the human activated kallikrein enzyme in two formats of an assay employing a fluorogenic peptide substrate. In one assay format, the concentrations of reagents were as follows: 20 mM Tris pH 7.5, 1 mM EDTA, 150 mM sodium chloride, 0.1% PEG-400, 0.1% Triton X-100, 500 pM activated kallikrein enzyme, 300 uM Pro-Phe-Arg-7-amido-4-methylcoumarin substrate. Prior to reaction initiation with substrate, enzyme and inhibitors were preincubated for 30 min at RT. After initiation with substrate, reactions were incubated for 10 min at RT and fluorescence emission at 460 nm from 380 nm excitation measured with a microplate reader. In another assay format, the concentrations of reagents were as follows: 20 mM Tris pH 7.5, 1 mM EDTA, 150 mM sodium chloride, 0.1% PEG-400, 0.1% Triton X-100, 5 pM activated kallikrein enzyme, 300 uM Pro-Phe-Arg-7-amido-4-methylcoumarin substrate. Prior to reaction initiation with substrate, enzyme and inhibitors were preincubated for 30 min at RT. After initiation with substrate, reactions were incubated for 18 h at RT and fluorescence emission at 460 nm from 380 nm excitation measured with a microplate reader.

Sequence of human activated kallikrein enzyme (plasma kallikrein) (P03952 391-638): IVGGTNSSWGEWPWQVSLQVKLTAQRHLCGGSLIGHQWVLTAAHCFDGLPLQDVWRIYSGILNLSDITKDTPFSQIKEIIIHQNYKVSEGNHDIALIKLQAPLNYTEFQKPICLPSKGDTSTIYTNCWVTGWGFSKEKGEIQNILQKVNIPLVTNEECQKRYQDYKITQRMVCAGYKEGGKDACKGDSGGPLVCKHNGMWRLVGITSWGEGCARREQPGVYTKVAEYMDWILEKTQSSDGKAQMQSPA
Sequence of human activated kallikrein enzyme (plasma kallikrein) (P03952 20-390 partner): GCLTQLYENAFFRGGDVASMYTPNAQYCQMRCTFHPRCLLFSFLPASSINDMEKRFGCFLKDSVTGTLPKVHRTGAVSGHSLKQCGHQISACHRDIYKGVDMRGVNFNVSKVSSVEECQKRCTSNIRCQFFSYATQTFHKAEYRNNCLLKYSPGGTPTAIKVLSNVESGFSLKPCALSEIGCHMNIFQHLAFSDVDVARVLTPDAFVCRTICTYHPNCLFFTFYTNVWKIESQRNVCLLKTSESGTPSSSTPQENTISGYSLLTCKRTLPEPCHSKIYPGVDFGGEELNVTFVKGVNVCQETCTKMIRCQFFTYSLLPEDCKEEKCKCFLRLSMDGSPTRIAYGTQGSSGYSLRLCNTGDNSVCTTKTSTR

Row | Compound | pEC50
1 | COCc1c(C(=O)NCc2ncn3ccc(Cl)cc23)cnn1Cc1cn2cc(C3CC3)ccc2n1 [Example I-32, N-((7-chloroimidazo[1,5-a]pyridin-1-yl)methyl)-1-((6-cyclopropylimidazo[1,2-a]pyridin-2-yl)methyl)-5-(methoxymethyl)-1H-pyrazole-4-carboxamide] | 7.00 to 8.00
2 | Cc1ccc2nc(Cn3cc(C(=O)NCc4ncn5ccc(Cl)c(Cl)c45)cn3)cn2c1 [Example I-33, N-((7,8-dichloroimidazo[1,5-a]pyridin-1-yl)methyl)-1-((6-methylimidazo[1,2-a]pyridin-2-yl)methyl)-1H-pyrazole-4-carboxamide] | 7.00 to 8.00
3 | CCc1c(Cl)ccc2nc(Cn3cc(C(=O)NCc4ncn5ccc(Cl)cc45)cn3)cn12 [Example I-34, 1-((6-chloro-5-ethylimidazo[1,2-a]pyridin-2-yl)methyl)-N-((7-chloroimidazo[1,5-a]pyridin-1-yl)methyl)-1H-pyrazole-4-carboxamide] | 7.00 to 8.00
4 | Cc1ccc2nc(Cn3cc(C(=O)NCc4ncn5ccc(Cl)c(C)c45)cn3)cn2c1 [Example I-35, N-((7-chloro-8-methylimidazo[1,5-a]pyridin-1-yl)methyl)-1-((6-methylimidazo[1,2-a]pyridin-2-yl)methyl)-1H-pyrazole-4-carboxamide] | 5.70 to 7.00
5 | O=C(NCc1ncn2ccc(Cl)cc12)c1cnn(Cc2cn3cc(Br)c(Cl)cc3n2)c1 [Example I-36, 1-((6-bromo-7-chloroimidazo[1,2-a]pyridin-2-yl)methyl)-N-((7-chloroimidazo[1,5-a]pyridin-1-yl)methyl)-1H-pyrazole-4-carboxamide] | 7.00 to 8.00
6 | O=C(NCc1ncn2ccc(Br)cc12)c1cnn(Cc2cn3cc(Br)c(Cl)cc3n2)c1 [Example I-37, 1-((6-bromo-7-chloroimidazo[1,2-a]pyridin-2-yl)methyl)-N-((7-bromoimidazo[1,5-a]pyridin-1-yl)methyl)-1H-pyrazole-4-carboxamide] | 7.00 to 8.00
7 | O=C(NCc1ncn2ccc(Cl)cc12)c1cnc(Cc2cn3cc(C4CC4)ccc3n2)s1 [Example I-38, N-((7-chloroimidazo[1,5-a]pyridin-1-yl)methyl)-2-((6-cyclopropylimidazo[1,2-a]pyridin-2-yl)methyl)thiazole-5-carboxamide] | 8.00 to 9.00
8 | O=C(NCc1ncn2ccc(Cl)cc12)c1cnn(Cc2cn3c(Cl)c(Br)ccc3n2)c1 [Example I-39, 1-((6-bromo-5-chloroimidazo[1,2-a]pyridin-2-yl)methyl)-N-((7-chloroimidazo[1,5-a]pyridin-1-yl)methyl)-1H-pyrazole-4-carboxamide] | 8.00 to 9.00
9 | O=C(NCc1ncn2ccc(Br)cc12)c1cnn(Cc2cn3c(Cl)c(Br)ccc3n2)c1 [Example I-40, 1-((6-bromo-5-chloroimidazo[1,2-a]pyridin-2-yl)methyl)-N-((7-bromoimidazo[1,5-a]pyridin-1-yl)methyl)-1H-pyrazole-4-carboxamide] | > 9.00
10 | CC1(C)CC1c1ccn2cc(Cn3cc(C(=O)NCc4ncn5ccc(Cl)cc45)cn3)nc2c1 (stereo not drawn) [Example I-41, N-((7-chloroimidazo[1,5-a]pyridin-1-yl)methyl)-1-((7-(2,2-dimethylcyclopropyl)imidazo[1,2-a]pyridin-2-yl)methyl)-1H-pyrazole-4-carboxamide] | 7.00 to 8.00
11 | CC(C)=Cc1ccn2cc(Cn3cc(C(=O)NCc4ncn5ccc(Cl)cc45)cn3)nc2c1 [Example I-42, N-((7-chloroimidazo[1,5-a]pyridin-1-yl)methyl)-1-((7-(2-methylprop-1-en-1-yl)imidazo[1,2-a]pyridin-2-yl)methyl)-1H-pyrazole-4-carboxamide] | 7.00 to 8.00
12 | CC1CC1c1ccc2nc(Cn3cc(C(=O)NCc4ncn5ccc(Cl)cc45)cn3)cn2c1 (stereo not drawn) [Example I-43, N-((7-chloroimidazo[1,5-a]pyridin-1-yl)methyl)-1-((6-(2-methylcyclopropyl)imidazo[1,2-a]pyridin-2-yl)methyl)-1H-pyrazole-4-carboxamide] | > 9.00

From patent publication US10730874B2 (Shire Human Genetic Therapies, Inc., priority 2018, dated 2020)
